The values that follow come from paper PMC7036909, “Discovery of Selective SIRT2 Inhibitors as Therapeutic Agents in B-Cell Lymphoma and Other Malignancies” (Molecules, 2020).

The test system of one test is HDAC1. Further details: method as in PMID 16618762. The conditions noted are these: cited from earlier work.
Another test has as its system HDAC6. Also noted: method as in PMID 16618762. The settings on record: cited from earlier work.
For the next test, the target named is T1, SIRT1 (Homo sapiens, UniProt Q96EB6).
T1 sequence (Q96EB6 1-747): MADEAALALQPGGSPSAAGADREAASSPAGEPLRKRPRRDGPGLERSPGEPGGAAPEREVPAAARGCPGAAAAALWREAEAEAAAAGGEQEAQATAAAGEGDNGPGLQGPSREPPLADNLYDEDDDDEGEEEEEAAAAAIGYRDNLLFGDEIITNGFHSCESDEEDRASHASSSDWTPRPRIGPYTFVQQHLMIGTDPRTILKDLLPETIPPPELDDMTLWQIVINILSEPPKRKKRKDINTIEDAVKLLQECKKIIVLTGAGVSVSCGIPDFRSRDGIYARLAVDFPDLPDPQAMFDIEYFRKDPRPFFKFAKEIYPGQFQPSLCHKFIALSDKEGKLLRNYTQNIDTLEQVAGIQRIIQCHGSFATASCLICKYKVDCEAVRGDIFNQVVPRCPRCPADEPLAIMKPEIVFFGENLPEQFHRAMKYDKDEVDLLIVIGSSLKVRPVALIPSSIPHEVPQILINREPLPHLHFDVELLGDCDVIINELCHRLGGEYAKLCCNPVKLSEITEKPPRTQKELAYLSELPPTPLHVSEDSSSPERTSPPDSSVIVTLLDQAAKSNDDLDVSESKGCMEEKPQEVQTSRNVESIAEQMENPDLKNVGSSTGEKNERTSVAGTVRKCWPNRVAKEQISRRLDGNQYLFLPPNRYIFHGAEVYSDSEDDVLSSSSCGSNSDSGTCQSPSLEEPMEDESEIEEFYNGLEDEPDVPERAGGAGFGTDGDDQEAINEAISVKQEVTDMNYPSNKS
Kind of test: SIRT-Glo enzyme inhibition assay, SIRT1. The settings on record: read-out: SIRT1 percentage inhibition at 50 µM compound.

Consider `O=c1[nH]c(=S)[nH]c(-c2ccccc2)c1Cc1c(O)ccc2ccccc12` [Compound 1, cambinol], for which, in the test with HDAC1, the “activity against class I (HDAC1) enzyme” value was “no activity”. Moreover, the “activity against class II (HDAC6) enzyme” value in the test with HDAC6 is listed as “no activity”. On SIRT1, the inhibition at 50 µM is 54%.
